Laboratory results: PMC6792352, “Limited Chemical Structural Diversity Found to Modulate Thyroid Hormone Receptor in the Tox21 Chemical Library” (Environmental Health Perspectives, 2019)
Where a name gives a salt, the structure may show the parent alone.

Test: in vitro
Conditions: rat, gh3-tre-luc cells, AC50 (uM) modified / 1000
With `O=C1OC(c2cc(I)c(O)c(I)c2)(c2cc(I)c(O)c(I)c2)c2ccccc21` [Iodophthalein] the CC50 at 24 h was 36.2 µM. Work on `COc1cc2nc(N3CCN(C(=O)C4CCCO4)CC3)nc(N)c2cc1OC` (stereo not shown) [Terazosin hydrochloride] yielded a CC50 at 24 h greater than 50 µM. `COc1ccnc(C[S+]([O-])c2nc3ccc(OC(F)F)cc3[nH]2)c1OC` (stereo not shown) [Pantoprazole sodium] showed a CC50 at 24 h greater than 90 µM. `O=CN(CCO)CCO` [N,N-Bis(2-hydroxyethyl)formamide] showed a CC50 at 24 h greater than 90 µM. Compound `CO/C=C(/C(=O)OC)c1ccccc1COc1cccc(C(F)(F)F)n1` [Picoxystrobin] has a CC50 at 24 h greater than 90 µM. For `Nc1cccc(N)c1` [1,3-Benzenediamine dihydrochloride], the CC50 at 24 h was greater than 90 µM. `N[C@H](C(=O)O)[C@@H]1CC(Cl)=NO1` [Acivicin] showed a CC50 at 24 h of 3.86 µM. Compound `CC1(C)O[C@H]2CC(=O)OC[C@]23[C@H]2CC[C@@]4(C)[C@H](c5ccoc5)OC(=O)[C@H]5O[C@]54[C@]2(C)C(=O)C[C@@H]13` [Limoni] has a CC50 at 24 h greater than 50 µM. For `C=C[Si](OCCOC)(OCCOC)OCCOC`, the CC50 at 24 h was greater than 90 µM. For `CCCCNC(N)=O` [N-Butylurea], the CC50 at 24 h was greater than 90 µM. Compound `CCCCC(CC)COP(=O)(OCC(CC)CCCC)OCC(CC)CCCC` (stereo not shown) [Tris(2-ethylhexyl) phosphate] has a CC50 at 24 h greater than 90 µM. Work on `CC(C)(C)[C@]1(O)CCN2C[C@H]3c4ccccc4CCc4cccc(c43)[C@@H]2C1` [Butaclamol hydrochloride] yielded a CC50 at 24 h of 22.9 µM. In the case of `CCCCCCCCSC(=O)Oc1cc(Cl)nnc1-c1ccccc1` [Pyridate], the CC50 at 24 h is reported as greater than 90 µM. `CCCCNC(=O)NCCCC` [N,N'-Dibutylurea] gave a CC50 at 24 h greater than 90 µM. `CCCC1CCC(=O)O1` (stereo not shown) [1,4-Heptanolide] gave a CC50 at 24 h greater than 90 µM. Compound `CC(CN(C)C)CN1c2ccccc2S(=O)(=O)c2ccccc21` (stereo not shown) [Oxomemazine hydrochloride] has a CC50 at 24 h of 37.7 µM. For `O=C(O)/C=C(\CC(=O)O)C(=O)O` [trans-Aconitic acid], the CC50 at 24 h was greater than 50 µM. In the case of `OC1(c2ccc(Cl)c(C(F)(F)F)c2)CCN(CCCC(c2ccc(F)cc2)c2ccc(F)cc2)CC1` [Penfluridol], the CC50 at 24 h is reported as 3.98 µM. `Cc1ccc(O)c(-n2nc3ccccc3n2)c1` [2-(2H-Benzotriazol-2-yl)-4-methylphenol] showed a CC50 at 24 h greater than 90 µM. In the case of `Cc1ccnc2c1NC(=O)c1cccnc1N2C1CC1` [Nevirapine], the CC50 at 24 h is reported as greater than 90 µM. `O=C(O)COCC(=O)O` [Diglycolic acid] gave a CC50 at 24 h greater than 90 µM. Work on `O=C1NCN(c2ccccc2)C12CCN(CCCC(c1ccc(F)cc1)c1ccc(F)cc1)CC2` [Fluspirilene] yielded a CC50 at 24 h of 4.02 µM. `C[Si](C)(C)C` [Tetramethylsilane] gave a CC50 at 24 h greater than 90 µM. In the case of `CC(C)Cn1cnc2c(N)nc3ccccc3c21` [Imiquimod], the CC50 at 24 h is reported as greater than 50 µM. `CC1CN(c2ccccc2)NC1=O` (stereo not shown) [4-Methyl-1-phenylpyrazolidin-3-one] showed a CC50 at 24 h greater than 90 µM. Work on `CCC(C)=NO` [2-Butanone oxime] yielded a CC50 at 24 h greater than 90 µM. With `CCC(=O)OCCC(C)CCC=C(C)C` (stereo not shown) [Citronellyl propionate] the CC50 at 24 h was greater than 90 µM. Work on `COC(COC(N)=O)C1=C(N2CC2)C(=O)C(C)=C(N2CC2)C1=O` (stereo not shown) [Carboquone] yielded a CC50 at 24 h of 0.556 µM. With `CN1CCC(OC(=O)C(Oc2ccc(Cl)cc2)Oc2ccc(Cl)cc2)CC1` [Lifibrate] the CC50 at 24 h was 27.6 µM. `Oc1ccc(C2CNCCc3c2cc(O)c(O)c3Cl)cc1` (stereo not shown) [Fenoldopam] showed a CC50 at 24 h greater than 50 µM. `C=CC1=C(C(=O)O)N2C(=O)[C@@H](NC(=O)/C(=N\O)c3csc(N)n3)[C@H]2SC1` [Cefdinir] gave a CC50 at 24 h greater than 50 µM. Work on `CC(C)NCC(O)c1ccc([N+](=O)[O-])cc1` (stereo not shown) [Nifenalol] yielded a CC50 at 24 h greater than 50 µM. In the case of `O=C=NCC1CCCC(CN=C=O)C1` (stereo not shown) [1,3-Bis(isocyanatomethyl)cyclohexane], the CC50 at 24 h is reported as greater than 90 µM. Work on `CC(=O)c1ccc([N+](=O)[O-])cc1` [4-Nitroacetophenone] yielded a CC50 at 24 h greater than 90 µM. `CC(O)C1CCCCC1` (stereo not shown) [1-Cyclohexylethanol] showed a CC50 at 24 h greater than 90 µM. For `CC1(C)S[C@@H]2[C@H](N)C(=O)N2[C@H]1C(=O)O` [6-Aminopenicillanic acid], the CC50 at 24 h was greater than 20 µM. With `Cc1nn(C)c(Oc2ccccc2)c1C=NOCc1ccc(C(=O)OC(C)(C)C)cc1` [Fenpyroximate (Z,E)] the CC50 at 24 h was 59.7 µM. With `ON=C1CCCCC1` [Cyclohexanone oxime] the CC50 at 24 h was greater than 90 µM. `CC(=O)CCC=C(C)C` [6-Methyl-5-hepten-2-one] showed a CC50 at 24 h greater than 90 µM. In the case of `CC1CN(c2cc3c(cc2F)c(=O)c(C(=O)O)cn3-c2ccc(F)cc2F)CCN1` (stereo not shown) [Temafloxacin], the CC50 at 24 h is reported as greater than 50 µM. Work on `CCCOC(=O)c1ccc(C(=O)OCCC)nc1` [Dipropyl 2,5-pyridinedicarboxylate] yielded a CC50 at 24 h greater than 90 µM. With `CN1C(=O)COc2c(C(=O)NC3CN4CCC3CC4)cc(Cl)cc21` (stereo not shown) [Azasetron] the CC50 at 24 h was 42.1 µM. `CC(C)c1cccc(C(C)C)c1N1C(=O)c2ccc(O)cc2C1=O` [5HPP-33] showed a CC50 at 24 h greater than 90 µM. With `CCCOC(=O)CCCCC(=O)OCCC` [Dipropyl hexanedioate] the CC50 at 24 h was greater than 90 µM. For `CCCCCCC#CC(=O)OC` [Methyl 2-nonynoate], the CC50 at 24 h was greater than 90 µM. `CO/N=C(\C(=O)N[C@@H]1C(=O)N2C(C(=O)O)=C(CSc3nnnn3C)CS[C@H]12)c1csc(N)n1` [Cefmenoxime hydrochloride] showed a CC50 at 24 h greater than 50 µM. With `Clc1cccc(Cl)c1` [1,3-Dichlorobenzene] the CC50 at 24 h was greater than 90 µM. In the case of `C[C@H](/C=C/[C@H](C)C(C)(C)O)[C@H]1CC[C@H]2/C(=C/C=C3C[C@@H](O)C[C@H](O)C3)CCC[C@]12C` [Paricalcitol], the CC50 at 24 h is reported as 27 µM. For `Nc1ncnc(Nc2ccccc2)n1` [Amanozine], the CC50 at 24 h was greater than 50 µM. `OCCOCCO` [Diethylene glycol] showed a CC50 at 24 h greater than 90 µM. Compound `CC(C)c1ccc(C(C)C)cc1` [1,4-Diisopropylbenzene] has a CC50 at 24 h greater than 90 µM. With `COCCOCCOCCO` [2-[2-(2-Methoxyethoxy)ethoxy]ethanol] the CC50 at 24 h was greater than 90 µM. With `O=C(Nc1ccccc1)Nc1ccccc1` [Diphenylurea] the CC50 at 24 h was greater than 90 µM. In the case of `O=C1Nc2ccc([N+](=O)[O-])cc2C1=O` [5-Nitroisatin], the CC50 at 24 h is reported as greater than 90 µM. `CCCCCCCCCCCCN1CCCCCC1=O` [Laurocapram] showed a CC50 at 24 h of 45.3 µM. In the case of `O=C(Cl)c1cc(Cl)cc(Cl)c1` [3,5-Dichlorobenzoyl chloride], the CC50 at 24 h is reported as greater than 90 µM. In the case of `CC/C=C/CCCCCCCCC1CC(=O)OC1=O` (stereo not shown) [(Tetrapropenyl)succinic anhydride], the CC50 at 24 h is reported as greater than 90 µM. `CC(CCc1ccccc1)NC(C)C(O)c1ccc(O)cc1` (stereo not shown) [Nylidrin] gave a CC50 at 24 h of 41.8 µM. Compound `CCOC(=O)Cn1c(=O)sc2cccc(Cl)c21` [Benazolin-ethyl] has a CC50 at 24 h greater than 90 µM. `OCC(O)CO` [Glycerol] showed a CC50 at 24 h greater than 90 µM.

Same assay, conditions: rat, gh3-tre-luc cells, AC50 (uM) modified / 1000, Tox21_110001=Tox21_111448; viability, 1 nM T3 present, 24 h
`CC(C)CC(N(C)C)C1(c2ccc(Cl)cc2)CCC1` (stereo not shown) [Sibutramine hydrochloride] gave a CC50 at 24 h greater than 50 µM.

Same assay, conditions: rat, gh3-tre-luc cells, AC50 (uM) modified / 1000, Tox21_110001=Tox21_112842; viability, 1 nM T3 present, 24 h
In the case of `COc1cc(CC(C)N)cc2c1OCO2` (stereo not shown) [1-(7-Methoxy-1,3-benzodioxol-5-yl)propan-2-amine hydrochloride], the CC50 at 24 h is reported as greater than 100 µM.

Same assay, conditions: rat, gh3-tre-luc cells, AC50 (uM) modified / 1000, Tox21_110001=Tox21_200667; viability, 1 nM T3 present, 24 h
Compound `CC(Cl)C(C)Cl` (stereo not shown) [2,3-Dichlorobutane] has a CC50 at 24 h greater than 90 µM.

Same assay, conditions: rat, gh3-tre-luc cells, AC50 (uM) modified / 1000, Tox21_110001=Tox21_201613; viability, 1 nM T3 present, 24 h
`O=[N+]([O-])c1ccc(Cl)c(Cl)c1` [3,4-Dichloronitrobenzene] gave a CC50 at 24 h greater than 90 µM.

Same assay, conditions: rat, gh3-tre-luc cells, AC50 (uM) modified / 1000, Tox21_110001=Tox21_202080; viability, 1 nM T3 present, 24 h
With `CC(=O)C=C(C)C` [4-Methylpent-3-en-2-one] the CC50 at 24 h was greater than 100 µM.

Same assay, conditions: rat, gh3-tre-luc cells, AC50 (uM) modified / 1000, Tox21_110001=Tox21_202297; viability, 1 nM T3 present, 24 h
Compound `O=C(O)C(Br)Br` [Dibromoacetic acid] has a CC50 at 24 h greater than 90 µM.

Same assay, conditions: rat, gh3-tre-luc cells, AC50 (uM) modified / 1000, Tox21_110001=Tox21_202896; viability, 1 nM T3 present, 24 h
Compound `O=C/C=C/c1ccco1` [(E)-3-(2-Furyl)acrolein] has a CC50 at 24 h greater than 90 µM.

Same assay, conditions: rat, gh3-tre-luc cells, AC50 (uM) modified / 1000, Tox21_110001=Tox21_302008; viability, 1 nM T3 present, 24 h
With `C#CCOC(=O)/C=C(C)/C=C/CC(C)CCCC(C)C` (stereo not shown) [Kinoprene] the CC50 at 24 h was greater than 90 µM.

Same assay, conditions: rat, gh3-tre-luc cells, AC50 (uM) modified / 1000, Tox21_110001=Tox21_302063; viability, 1 nM T3 present, 24 h
Work on `CCOC(=O)CC(=O)CCl` [Ethyl 4-chloro-3-oxobutanoate] yielded a CC50 at 24 h of 76.9 µM.

Same assay, conditions: rat, gh3-tre-luc cells, AC50 (uM) modified / 1000, Tox21_110001=Tox21_303606; viability, 1 nM T3 present, 24 h
In the case of `CC(=O)C=C(C)C` [4-Methylpent-3-en-2-one], the CC50 at 24 h is reported as greater than 90 µM.
